In one series the target is T1, PDE10A enzyme (Homo sapiens, UniProt Q9Y233).
T1 construct: made in house; host or cells: E. coli BL21(DE3)
Kind of series: PDE10A inhibition assay. The note with it: 3H-labelled cAMP substrate 5 nM, SPA beads, one hr at room temperature. It counts as biochemical. As for the experimental part: Active PDE10A enzyme is prepared in a number of ways for use in PDE assays (Loughney, K. et al. Gene 1999, 234, 109-117; Fujishige, K. et al. Eur J Biochem. 1999, 266, 1118-1127 and Soderling, S. et al. Proc. Natl. Acad. Sci. 1999, 96, 7071-7076). PDE10A can be expressed as full-length proteins or as truncated proteins, as long as they express the catalytic domain. PDE10A can be prepared in different cell types, for example insect cells or E. coli. An example of a method to obtain catalytically active PDE10A is as follows: The catalytic domain of human PDE10A (amino acids 440-779 from the sequence with accession number NP 006652) is amplified from total human brain total RNA by standard RT-PCR and is cloned into the BamH1 and Xho1 sites of the pET28a vector (Novagen). Expression in coil is performed according to standard protocols. Briefly, the expression plasmids are transformed into the BL21(DE3) E. coli strain, and 50 mL cultures inoculated with the cells allowed to grow to an OD600 of 0.4-0.6 before protein expression is induced with 0.5mM IPTG. Following induction, the cells are incubated overnight at room temperature, after which the cells are collected by centrifugation. Cells expressing PDE10A are resuspended in 12 mL (50 mM TRIS-HCl-pH8.0, 1 mM MgCl2 and protease inhibitors). The cells are lysed by sonication, and after all cells are lysed, TritonX100 is added according to Novagen protocols.
A PDE10A assay may for example, be performed as follows: The assay is performed in 60 uL samples containing a fixed amount of the relevant PDE enzyme (sufficient to convert 20-25% of the cyclic nucleotide substrate), a buffer (50 mM HEPES7.6; 10 mM MgCl2; 0.02% Tween20), 0.1 mg/mI BSA, 225 pCi of ^3H-labelled cyclic nucleotide substrate, tritium labeled cAMP to a final concentration of 5 nM and varying amounts of inhibitors. Reactions are initiated by addition of the cyclic nucleotide substrate, and reactions are allowed to proceed for one hr at room temperature before being terminated through mixing with 15 uL 8 mg/mL yttrium silicate SPA beads (Amersham). The beads are allowed to settle for one hr in the dark before the plates are counted in a Wallac 1450 Microbeta counter. The measured signal can be converted to activity relative to an uninhibited control (100%) and IC50 values can be calculated using the XIfit extension to EXCEL.

Series [1] concerns rats. The note with it: cited from earlier work.
Series [2] concerns rats. The note with it: cited from earlier work. The source holds these as a separate data set.
Series [3] deals with rats. The note with it: cited from earlier work. This is another data set of the same source.

The IC50 is the midpoint of a concentration-inhibition curve. One may read the melting point as the temperature, or range, at which the solid turns liquid.

T1 sequence (Q9Y233 716-1055): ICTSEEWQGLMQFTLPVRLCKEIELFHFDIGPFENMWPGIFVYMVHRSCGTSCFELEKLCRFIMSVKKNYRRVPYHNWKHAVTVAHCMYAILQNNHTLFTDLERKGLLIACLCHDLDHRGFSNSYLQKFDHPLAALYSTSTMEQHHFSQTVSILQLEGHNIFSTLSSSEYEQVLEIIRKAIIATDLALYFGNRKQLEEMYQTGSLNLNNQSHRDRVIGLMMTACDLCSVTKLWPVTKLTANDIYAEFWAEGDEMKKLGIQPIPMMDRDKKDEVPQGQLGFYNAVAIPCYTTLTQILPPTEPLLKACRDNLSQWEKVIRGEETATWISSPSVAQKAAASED

For `Cc1cccc2nc(CSc3nc(-c4ccccc4)n[nH]3)nn12` [5-Methyl-2-(5-phenyl-2H-[1,2,4]triazol-3-ylsulfanylmethyl)-[1,2,4]triazolo[1,5-a]pyridine], at PDE10A enzyme, the 50% inhibitory concentration (IC50) is 200 nM.
`Cc1cccc2nc(CCc3nc(-c4ccccc4)nn3C)nn12` [5-Methyl-2-[2-(2-methyl-5-phenyl-2H-[1,2,4]triazol-3-yl)-ethyl]-[1,2,4]triazolo[1,5-a]pyridine] returned an IC50 against PDE10A enzyme of 220 nM.
On the same count and under the same terms, with `CCc1ccc(C)n2nc(CCc3nc(-c4ccccc4)nn3C(C)C)nc12` [8-Ethyl-2-[2-(2-isopropyl-5-phenyl-2H-[1,2,4]triazol-3-yl)-ethyl]-5-methyl-[1,2,4]triazolo[1,5-a]pyridine] the figure was 40 nM; with `CCc1ccc(C)n2nc(CCc3nc(-c4ccccc4)nn3C)nc12` [8-Ethyl-5-methyl-2-[2-(2-methyl-5-phenyl-2H-[1,2,4]triazol-3-yl)-ethyl]-[1,2,4]triazolo[1,5-a]pyridine], 7.5 nM.
`CCCn1nc(-c2ccccc2)nc1CCc1nc2c(CC)ccc(C)n2n1` [8-Ethyl-5-methyl-2-[2-(5-phenyl-2-propyl-2H-[1,2,4]triazol-3-yl)-ethyl]-[1,2,4]triazolo[1,5-a]pyridine] displayed a melting point of 141 to 143 °C. This compound yielded an IC50 on PDE10A enzyme of 10 nM.
Consider `COc1cccn2nc(CCc3nc(-c4ccccc4)nn3C)nc12` [8-Methoxy-2-[2-(2-methyl-5-phenyl-2H-[1,2,4]triazol-3-yl)-ethyl]-[1,2,4]triazolo[1,5-a]pyridine], for which the concentration for half-maximal inhibition (IC50) at PDE10A enzyme was found to be 560 nM.
Turning to `COCCn1nc(-c2ccccc2)nc1CCc1nc2c(OC)ccc(C)n2n1` [8-Methoxy-2-{2-[2-(2-methoxy-ethyl)-5-phenyl-2H-[1,2,4]triazol-3-yl]-ethyl}-5-methyl-[1,2,4]triazolo[1,5-a]pyridine], the 50% inhibitory concentration (IC50) against PDE10A enzyme stood at 62 nM.
Same read-out and setting: with `COc1ccc(C)n2nc(CSc3nc(-c4ccccc4)n[nH]3)nc12` [8-Methoxy-5-methyl-2-(5-phenyl-2H-[1,2,4]triazol-3-ylsulfanylmethyl)-[1,2,4]triazolo[1,5-a]pyridine] the figure was 52 nM; with `COc1ccc(C)n2nc(CCc3nc(-c4ccccc4)nn3C)nc12` [8-Methoxy-5-methyl-2-[2-(2-methyl-5-phenyl-2H-[1,2,4]triazol-3-yl)-ethyl]-[1,2,4]triazolo[1,5-a]pyridine], 25 nM; with `CCCn1nc(-c2ccccc2)nc1CCc1nc2c(OC)ccc(C)n2n1` [8-Methoxy-5-methyl-2-[2-(5-phenyl-2-propyl-2H-[1,2,4]triazol-3-yl)-ethyl]-[1,2,4]triazolo[1,5-a]pyridine], 37 nM.
Consider `COc1ccc(C)n2nc(CCc3nc(-c4ccccc4)nn3CC(F)(F)F)nc12` [8-Methoxy-5-methyl-2-{2-[5-phenyl-2-(2,2,2-trifluoro-ethyl)-2H-[1,2,4]triazol-3-yl]-ethyl}-[1,2,4]triazolo[1,5-a]pyridine], for which, at PDE10A enzyme, 180 nM corresponded to half-maximal inhibition (IC50).
The same measure, in the same setting: with `Cc1cccn2nc(CCc3nc(-c4ccccc4)nn3C)nc12` [8-Methyl-2-[2-(2-methyl-5-phenyl-2H-[1,2,4]triazol-3-yl)-ethyl]-[1,2,4]triazolo[1,5-a]pyridine] the figure was 170 nM.
Take `COc1ccc(Cc2nccc3cc(OC)c(OC)cc23)cc1OC` [Papaverine, papaverine]: the “catalepsy on its own” value in the series with rats [1] (papaverine alone) is on record as “did not cause catalepsy”. Further, the “cataleptic effect of the D2 receptor antagonist haloperidol” value in the series with rats [1] (together with haloperidol) is recorded as “potentiated”. Moreover, the “reduction of amphetamine induced hyperactivity” value with rats [2] is recorded as “insignificant”. In addition, in the series with rats [3], the “hyperactivity induced by PCP” value is listed as “reduced hyperactivity”.
Consider `CCOC(=O)Cn1nc(-c2ccccc2)nc1CCc1nc2c(OC)ccc(C)n2n1` [{5-[2-(8-Methoxy-5-methyl-[1,2,4]triazolo[1,5-a]pyridin-2-yl)-ethyl]-3-phenyl-[1,2,4]triazol-1-yl}-acetic acid ethyl ester], for which, at PDE10A enzyme, half-maximal inhibition (IC50) was put at 81 nM.

The values are drawn from US8785653B2, “(3-aryl-1H-1,2,4-triazol-5-yl)-linked heterocycle derivatives” (H. Lundbeck A/S, priority 2009, dated 2014).
